# Test results: US9708314B2, “Heterocyclic amide compound” (NISSAN CHEMICAL INDUSTRIES, LTD., priority 2013, dated 2017)
# What was measured:
# Format in all cases: in vivo
# Scirpus juncoides = assay: Test Example 1: herbicidal activity, application before weed generation in submerged conditions; conditions: Application herbicide amount 320 g/ha; Seventeenth Table
# How it was run: (§1)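 Water-diluted emulsion formulation is applied onto flood water (4 cm deep) covering alluvial soil on the day weed seeds are sown, after transplanting 2.5 leaf stage rice. Rates are expressed per hectare. Injury or control is graded 0–5 three weeks later.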
# [1] = tested on: Echinochloa oryzacola Vasing.; assay: as above; conditions: Application herbicide amount 320 g/ha; Seventeenth Table
# How it was run: as §1
# Monochoria vaginalis = assay: as above; conditions: Application herbicide amount 320 g/ha; Seventeenth Table
# How it was run: as §1
# Setaria viridis = assay: Test Example 4: herbicidal effect by application to foliage (diluvial soil, plastic box); conditions: foliage application, 320 g/ha
# How it was run: (§2)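 Greenhouse plants (25° C. to 30° C., 14 d, diluvial soil) receive a foliar spray of water-diluted emulsifiable formulation at defined g/ha. Grading after 3 weeks uses a six-step herbicidal-ratio scale, with 4 covering 70% to <90% and 1 covering 5% to <20%.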
# Alopecurus myosuroides = assay: as above; conditions: foliage application, 320 g/ha
# How it was run: as §2
# Chenopodium album = assay: as above; conditions: foliage application, 320 g/ha
# How it was run: as §2
# Veronica persica = assay: as above; conditions: foliage application, 320 g/ha
# How it was run: as §2
# [2] = tested on: Echinochloa crus-galli var. crus-galli; assay: as above; conditions: foliage application, 320 g/ha
# How it was run: as §2
# Lolium multiflorum Lam. = assay: as above; conditions: foliage application, 320 g/ha
# How it was run: as §2
# Galium spurium = assay: as above; conditions: foliage application, 320 g/ha
# How it was run: as §2
# Digitaria ciliaris = assay: as above; conditions: foliage application, 320 g/ha
# How it was run: as §2
# Abutilon theophrasti = assay: as above; conditions: foliage application, 320 g/ha
# How it was run: as §2
# Amaranthus retroflexus = assay: as above; conditions: foliage application, 320 g/ha
# How it was run: as §2
# Stellaria media = assay: as above; conditions: foliage application, 320 g/ha
# How it was run: as §2
# Apera spica-venti. = assay: as above; conditions: foliage application, 320 g/ha
# How it was run: as §2
# Avena fatua = assay: as above; conditions: foliage application, 320 g/ha
# How it was run: as §2
# Triticum aestivum = assay: Test Example 4: effect on crop by application to foliage (diluvial soil, plastic box); conditions: foliage application, 320 g/ha
# How it was run: as §2
# Glycine max = assay: as above; conditions: foliage application, 320 g/ha
# How it was run: as §2
# Brassica campestris L. = assay: as above; conditions: foliage application, 320 g/ha
# How it was run: as §2
# [3] = tested on: directly sowed Oryza sativa; assay: as above; conditions: foliage application, 320 g/ha
# How it was run: as §2
# [4] = tested on: Beta vulgaris ssp. vulgaris; assay: as above; conditions: foliage application, 320 g/ha
# How it was run: as §2
# Zea mays = assay: as above; conditions: foliage application, 320 g/ha
# How it was run: as §2
smiles,measurement,setting,value
Cn1nnnc1NC(=O)c1ccc(C(F)(F)F)n2c(CCS(C)(=O)=O)nnc12 [2-059],B: Scirpus juncoides (herbicidal effect grade),Scirpus juncoides,4 (Herbicidal ratio of 70% or more and less than 90%)
same,A: Echinochloa oryzicola Vasing. (herbicidal effect grade),[1],4 (Herbicidal ratio of 70% or more and less than 90%)
same,C: Monochoria vaginalis (herbicidal effect grade),Monochoria vaginalis,4 (Herbicidal ratio of 70% or more and less than 90%)
same,G (Setaria viridis) herbicidal effect grade,Setaria viridis,5 (Herbicidal ratio of 90% or more (almost completely withered))
same,J (Alopecurus myosuroides) herbicidal effect grade,Alopecurus myosuroides,4 (Herbicidal ratio of 70% or more and less than 90%)
same,O (Chenopodium album) herbicidal effect grade,Chenopodium album,5 (Herbicidal ratio of 90% or more (almost completely withered))
same,R (Veronica persica) herbicidal effect grade,Veronica persica,5 (Herbicidal ratio of 90% or more (almost completely withered))
same,H (Echinochloa crus-galli var. crus-galli) herbicidal effect grade,[2],5 (Herbicidal ratio of 90% or more (almost completely withered))
same,K (Lolium multiflorum Lam.) herbicidal effect grade,Lolium multiflorum Lam.,4 (Herbicidal ratio of 70% or more and less than 90%)
same,Q (Galium spurium) herbicidal effect grade,Galium spurium,5 (Herbicidal ratio of 90% or more (almost completely withered))
same,F (Digitaria ciliaris) herbicidal effect grade,Digitaria ciliaris,5 (Herbicidal ratio of 90% or more (almost completely withered))
same,M (Abutilon theophrasti) herbicidal effect grade,Abutilon theophrasti,5 (Herbicidal ratio of 90% or more (almost completely withered))
same,N (Amaranthus retroflexus) herbicidal effect grade,Amaranthus retroflexus,5 (Herbicidal ratio of 90% or more (almost completely withered))
same,P (Stellaria media) herbicidal effect grade,Stellaria media,5 (Herbicidal ratio of 90% or more (almost completely withered))
same,L (Apera spica-venti.) herbicidal effect grade,Apera spica-venti.,4 (Herbicidal ratio of 70% or more and less than 90%)
same,I (Avena fatua) herbicidal effect grade,Avena fatua,4 (Herbicidal ratio of 70% or more and less than 90%)
same,e (Triticum aestivum) effect on crop grade,Triticum aestivum,4 (Herbicidal ratio of 70% or more and less than 90%)
same,c (Glycine max) effect on crop grade,Glycine max,3 (Herbicidal ratio of 40% or more and less than 70%)
same,g (Brassica campestris L.) effect on crop grade,Brassica campestris L.,5 (Herbicidal ratio of 90% or more (almost completely withered))
same,d (directly sowed Oryza sativa) effect on crop grade,[3],5 (Herbicidal ratio of 90% or more (almost completely withered))
same,f (Beta vulgaris ssp. vulgaris) effect on crop grade,[4],5 (Herbicidal ratio of 90% or more (almost completely withered))
same,b (Zea mays) effect on crop grade,Zea mays,5 (Herbicidal ratio of 90% or more (almost completely withered))
